From patent publication US10047151B2, “Methods for the treatment of cancer and inflammatory diseases using cereblon as a predictor” (Celgene Corporation, priority 2011, dated 2018)

Tests used:
Type in all cases: cell-based
CRBN = CRBN mRNA and protein expression after drug treatment (RT-PCR, Western blot); conditions: H929 and U266B1 cells; pomalidomide 1 μM, lenalidomide 10 μM
DLBCL cells = experiment: 3H-thymidine incorporation cell proliferation assay in DLBCL cell lines; conditions: 0.01-100 μM, 5 days
Method: Cell proliferation was assessed using the ^3H-thymidine incorporation assay. Briefly, logarithmically growing DLBCL cells were cultured in 96-well culture plates in complete media with the indicated concentration of lenalidomide or DMSO control. Following incubation at 37° C. for 5 days, 1 μCi ^3H-thymidine (GE Healthcare Biosciences, Piscataway, N.J.) was added to each well for the final 5 hours of incubation. Cells were then harvested onto UniFilter GF/C filter plates (PerkinElmer, Waltham, Mass.) using a cell harvester (Tomtec, Hamden, Conn.) and the plates were allowed to dry overnight. The ^3H-thymidine incorporation of each well was then measured using a TopCount NXT Microplate Scintillation and Luminescence Counter (Packard BioScience, Meriden, Conn.). The percent inhibition of cell proliferation was calculated and normalized to DMSO control.
In order to define the place of lenalidomide for DLBCL therapy in specific patient populations and to understand the molecular mechanisms of efficacy, a panel of DLBCL cell lines was collected in this study. The DLBCL subtypes of the cell lines were confirmed based on literature information (Lenz G, et al., Proc Natl Acad Sci USA 2008; 105: 13520-5) and molecular analysis, including intracellular NF-κB activity or IRF4 expression, as well as gene expression profiling of key signature genes of activated B cells.

U266 = experiment: Ubiscan ubiquitinated peptide quantification in U266
Source text: The effects of lenalidomide and pomalidomide on protein ubiquination were investigated using CST Ubiscan technology. Treated samples were sent to Cell Signaling Technology for ubiquinated peptide enrichment and quantification by LC/MS/MS. […] In the MG132 combo, more ubiquinated peptides are observed (compared with their controls). […] These peptides correspond to 176 unique proteins. Top few groups are: nucleosome, chromatin, protein-DNA complex assembly, Histone H2A. Among the 176 proteins, we found five proteins that belong to “ubiquitin-protein ligase activity” category, they are MDM2, HERC2, UBE2D3 (only by pomalidomide), UBE2N (lenalidomide only), UBE2M (both). Results for hits categorized by conditions are shown in FIGS. 8 & 9 (without MG132) and FIGS. 10 & 11 (with MG132).

p21^WAF-1 = experiment: p21WAF-1 mRNA and protein levels in U266B1 cells; conditions: U266B1, control mock and negative control siRNA-transfected cells; pomalidomide 1 μM, lenalidomide 10 μM
Method: To further investigate the effects of CRBN on the cell cycle arrest induced by drugs we used RT-PCR and Western blot analysis to measure the levels of key cell cycle and apoptotic regulators. U266B1 cells were transfected with mock, negative control siRNA, CRBN-siRNA-7 and CRBN-siRNA-11 for 24, 48, 72 and 96 h (FIG. 3A). Cells were treated 24 h after transfection with DMSO (0.1%), pomalidomide (1 μM) and lenalidomide (10 μM) for 1, 2, 3 days and the effect on mRNA and protein levels of the cyclin-dependent kinase (CDK) inhibitor p21^WAF-1 were evaluated. It has been shown that lenalidomide- and pomalidomide-induced cell cycle arrest is dependent on up-regulation of p21^WAF-1 in […]. […] However, knockdown of CRBN prevents the induction of p21^WAF-1 indicating the successful abrogation of G1 arrest and renewal of S phase progression (FIGS. 3C & 3D).

[1] = system: CARD11-BCL-10-MALT1 (CBM) complex; experiment: MALT1-induced BCL-10 cleavage (CBM complex activity) in ABC-DLBCL cells
Method: Cells were treated with test compounds or 0.1% DMSO for indicated times. Following incubation, cells were collected, pelleted with centrifugation, and immediately lysed in 0.1 ml lysis buffer containing 10 mM Tris-HCl pH 8.0, 10 mM EDTA, 150 mM NaCl, 1% NP-40, 0.5% SDS, 1 mM DTT, 1 mM Na3VO4, plus Complete protease inhibitor cocktail (Roche Applied Science, Indianapolis, Ind.), then processed with a Qiashredder™ (Qiagen, Valencia, Calif.) for 1 minute and frozen on dry ice. Samples were diluted with 6×SDS sample buffer and then boiled for 5 min. Approximately 30 μl of this mixture was loaded per lane on a Criterion Precast 4-12% Tris-HCl gel (Bio-Rad, Hercules, Calif.), electrophoresed, and transferred to nitrocellulose membranes (Bio-Rad, Hercules, Calif.). The membranes were blocked for 1 hour at room temperature using blocking buffer (LI-COR Biosciences, Lincoln, Nebr.), then incubated overnight at 4° C. with antibodies against either BCL-10, IRF4, CRBN or β-actin. Membranes were washed and incubated with IRDye Secondary Antibodies (1:30,000) for 1 hour at room temperature. A standard protocol was then followed for signal detection, using the Odyssey® Infrared Imaging System and software (LI-COR Biosciences, Lincoln, Nebr.).
This mutation has been reported to cause constitutive formation and activation of CARD11-BCL-10-MALT1 (CBM) complex of BCR signaling pathway, leading to NF-κB overactivation in lymphoma cells. See Lenz, G., et al., Science 2008, 319: 1676-9; Thome, M. et al., Cold Spring Harb Perspect Biol. 2010; 2: a003004. To investigate the potential involvement of CBM complex in lenalidomide-induced IRF4 inhibition in these cells, the effect of lenalidomide on the complex activity was examined by measuring MALT1 paracaspase enzymatic activity. MALT1 is activated upon association with BCL-10 and CARD11 to form active CBM complex and then cleaves its binding partners, such as BCL-10.

Structure (SMILES): Nc1cccc2c1CN(C1CCC(=O)NC1=O)C2=O (centres unmarked) [lenalidomide, 3-(4-amino-1-oxo-1,3-dihydro-isoindol-2-yl)-piperidine-2,6-dione]
- mRNA and protein expression of CRBN (CRBN): affected neither mRNA nor protein expression of CRBN significantly
- proliferation of cells (DLBCL cells; ABC-DLBCL cell lines, except for OCI-Ly3): significantly inhibited
- proliferation of cells (DLBCL cells; PBML and GCB-DLBCL cells): minimal effects
- Ub-proteins increased in abundance (U266): IKZF3, RPL19, PCM1 and NEDD8
- proteins decreased in abundance (U266): GNB2L1 and HNRNPR
- p21 level (p21^WAF-1): up-regulated
- BCL-10 cleavage ([1]; OCI-Ly3 cells): neither the PKCβ inhibitor nor lenalidomide had any effect
- MALT1-induced BCL-10 cleavage ([1]; sensitive ABC-DLBCL cell lines OCI-Ly10 and U2932): inhibited MALT1-induced BCL-10 cleavage in a concentration-dependent manner
